Experimental data taken from patent US20260355170A1, “Treatment of Endometrial Cancer with MDM2 Inhibitors” (Kartos Therapeutics, Inc., priority 2023, published 2026).
pEC50: −log10 of the molar value.

Tests used:
Type in all cases: cell-based
HEC-151 cells = test: CellTiter-Glo viability/proliferation assay, growth of HEC-151 TP53 WT endometrial cancer cells; conditions: 144 h, 6-day incubation
Method: (§1) The effect of MDM2 inhibitor compound of Formula (I) on growth of a p53 wild-type (TP53 WT) endometrial cancer cell line was assessed in HEC-151 cells, HEC-265 cells, and HEC-108 cells as described below.
(§2) Test and Control Article Preparation: A stock solution for Formula (I) was created by dissolving the compound in 100% DMSO to a concentration of 10 mM which was stored at −20 °C. Working solutions ranging from 0.04 μM to 10 μM to generate a 10-point dilution series were prepared by diluting the stock solution in culture media specific to each cell line (cell line assay media). Final concentrations of DMSO were kept constant at 0.1% to maintain cell viability. […]
(§3) Treatment of Cells for Proliferation Assay: Cells were counted (Countess III automated cell counter, Thermo Fisher Scientific) using a cell viability imaging kit (Thermo Fisher Scientific; cat #R37609). […]
(§4) On Day 0 prior treatment, and after the treatment period, the number of viable cells were measured using the CellTiter-Glo® Luminescent Cell Viability Assay (Promega) according to manufacturer instructions. The luminescence for each treatment condition was normalized to the DMSO control as a percent of control. Dose response curves were generated and EC50s and EC90s were determined based on percent of DMSO control. […]

HEC-108 cells = test: CellTiter-Glo viability/proliferation assay, growth of HEC-108 TP53 WT endometrial cancer cells
Method: as §1, §2, §3, §4

[1] = system: p53 wild-type (TP53 WT) endometrial cancer cell line; test: Inhibition of endometrial cancer cell growth (overall result, FIG. 1); conditions: at clinically relevant doses; results shown in FIG. 1
Method: as §1, §2, §3, §4

HEC-265 cells = test: CellTiter-Glo viability/proliferation assay, growth of HEC-265 TP53 WT endometrial cancer cells; conditions: 144 h, 6-day incubation
Method: as §1, §2, §3, §4

[2] = read-out: Near complete growth inhibition (EC90)

pEC50 (HEC-151 cells; percent of DMSO control): 6.40 | EC90 (HEC-151 cells; [2]): 700 nM | pEC50 (HEC-265 cells; percent of DMSO control): 6.22 | EC90 (HEC-265 cells; [2]): 700 nM
SMILES: CC(C)[C@@H](CS(=O)(=O)C(C)C)N1C(=O)[C@@](C)(CC(=O)O)C[C@H](c2cccc(Cl)c2)[C@H]1c1ccc(Cl)cc1 [Formula (I), 2-((3R,5R,6S)-5-(3-chlorophenyl)-6-(4-chlorophenyl)-1-((S)-1-(isopropylsulfonyl)-3-methylbutan-2-yl)-3-methyl-2-oxopiperidin-3-yl) acetic Acid]
growth inhibition (200-point scale: 0 uninhibited growth, 100 cell stasis, 200 complete cell killing) (HEC-108 cells; at 10 μM, 6-day exposure): only nearly reached cell stasis | cell killing sensitivity (HEC-108 cells; compared with HEC-151 and HEC-265, 6-day exposure): less sensitive | growth inhibition [1]: growth inhibition by the compound of Formula (I) at clinically relevant doses
